Each compound was assayed on β-catenin-TCF-mediated reporter transcription activity in Colo 205 cells (assay: Colo 205 reporter assay (TCF/LEF luciferase)). Conditions: Colo 205 TCF/LEF luciferase reporter, five hours after addition of compound; read-out: TCF reporter Colo205 IC50.
Assay type: cell-based
Method in brief: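 Luciferase signal from a TCF/LEF-driven reporter, stably integrated in Colo 205 colon cancer cells, was measured 5 h after compound addition.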

IC50 [nM] | SMILES
1000 to 5000 | Cc1nc(NCc2cnn(Cc3ccc(C(F)(F)F)nc3)c2)nc2c1NC(=O)C1(CCOC1)N2C (stereo not drawn) [Compound 663, 4′,8′-dimethyl-2′-(((1-((6-(trifluoromethyl)pyridin-3-yl)methyl)-1H-pyrazol-4-yl)methyl)amino)-4,5,5′,8′-tetrahydro-2H,6′H-spiro[furan-3,7′-pteridin]-6′-one]

Same assay, conditions: Homo sapiens, 5 h; Colo 205 TCF/LEF luciferase reporter, five hours after addition of compound; read-out: TCF reporter Colo205 IC50

SMILES | IC50 [nM]
Cc1nc(N[C@H]2C[C@@H](NC(=O)Oc3ccc(F)cc3)C2)nc2c1NC(=O)[C@H](C)N2C [Compound 464, 4-fluorophenyl (cis-3-(((S)-4,7,8-trimethyl-6-oxo-5,6,7,8-tetrahydropteridin-2-yl)amino)cyclobutyl)carbamate] | 300 to 1000

Same assay, conditions: Homo sapiens, COLO 205, 5 h, Colo 205 TCF/LEF luciferase reporter, five hours after addition of compound; read-out: TCF reporter Colo205 IC50

IC50 [nM] | SMILES
≥ 5000 | Cc1nc(N[C@H]2C[C@@H](COc3ccnn3C)C2)nc2c1NC(=O)[C@H](C(C)C)N2C [Compound 693, (S)-7-isopropyl-4,8-dimethyl-2-((cis-3-(((1-methyl-1H-pyrazol-5-yl)oxy)methyl)cyclobutyl)amino)-7,8-dihydropteridin-6(5H)-one]
300 to 1000 | Cc1nc(NC2CN(C(=O)Cc3ccc(F)cc3)C2)nc2c1NC(=O)[C@H](C(C)C)N2C [Compound 618, (S)-2-((1-(2-(4-fluorophenyl)acetyl)azetidin-3-yl)amino)-7-isopropyl-4,8-dimethyl-7,8-dihydropteridin-6(5H)-one]
300 to 1000 | CC(=O)c1ccc(OC[C@H]2C[C@@H](Nc3nc(C)c4c(n3)N(C)[C@@H](C(C)C)C(=O)N4)C2)cn1 [Compound 696, (S)-2-((cis-3-(((6-acetylpyridin-3-yl)oxy)methyl)cyclobutyl)amino)-7-isopropyl-4,8-dimethyl-7,8-dihydropteridin-6(5H)-one]
≥ 5000 | CO[C@@H](C(=O)N1CC(Nc2nc(C)c3c(n2)N(C)[C@@H](C(C)C)C(=O)N3)C1)c1ccccc1 [Compound 634, (S)-7-isopropyl-2-((1-((R)-2-methoxy-2-phenylacetyl)azetidin-3-yl)amino)-4,8-dimethyl-7,8-dihydropteridin-6(5H)-one]
≥ 5000 | Cc1nc(NC2CN(C(=O)C3CCC(C)O3)C2)nc2c1NC(=O)[C@H](C(C)C)N2C (stereo partly drawn) [Compound 637, (7S)-7-isopropyl-4,8-dimethyl-2-((1-(5-methyltetrahydrofuran-2-carbonyl)azetidin-3-yl)amino)-7,8-dihydropteridin-6(5H)-one]
< 300 | Cc1nc(NCc2cnn(Cc3cc(F)c(F)c(F)c3)c2)nc2c1NC(=O)[C@H](C(C)(C)O)N2C [Compound 729, (S)-7-(2-hydroxypropan-2-yl)-4,8-dimethyl-2-(((1-(3,4,5-trifluorobenzyl)-1H-pyrazol-4-yl)methyl)amino)-7,8-dihydropteridin-6(5H)-one]
< 300 | Cc1nc(N[C@H]2C[C@H](NC(=O)Cc3cc(F)c(F)c(F)c3)C2)nc2c1NC(=O)[C@H](C(C)C)N2C [Compound 515, N-(trans-3-(((S)-7-isopropyl-4,8-dimethyl-6-oxo-5,6,7,8-tetrahydropteridin-2-yl)amino)cyclobutyl)-2-(3,4,5-trifluorophenyl)acetamide]
< 300 | COC1(C2C(=O)Nc3c(C)nc(N[C@H]4C[C@@H](Cn5nccc5C(F)(F)F)C4)nc3N2C)CC1 (relative stereo) [Compound 676, 7-(1-methoxycyclopropyl)-4,8-dimethyl-2-((cis-3-((5-(trifluoromethyl)-1H-pyrazol-1-yl)methyl)cyclobutyl)amino)-7,8-dihydropteridin-6(5H)-one]
1000 to 5000 | Cc1nc(NC2CN(C(=O)Nc3cc(F)c(F)c(F)c3)C2)nc2c1NC(=O)[C@H](C(C)C)N2C [Compound 564, (7S)-3-((7-isopropyl-4,8-dimethyl-6-oxo-5,6,7,8-tetrahydropteridin-2-yl)amino)-N-(3,4,5-trifluorophenyl)azetidine-1-carboxamide]
300 to 1000 | Cc1cc(C(F)(F)F)n(C[C@H]2C[C@@H](Nc3nc(C)c4c(n3)N(C)[C@@H](C(C)C)C(=O)N4)C2)n1 [Compound 582, (S)-7-isopropyl-4,8-dimethyl-2-((cis-3-((3-methyl-5-(trifluoromethyl)-1H-pyrazol-1-yl)methyl)cyclobutyl)amino)-7,8-dihydropteridin-6(5H)-one]

Further lines, the compound ahead of its results:

SMILES | IC50 [nM]
C[C@H]1C(=O)Nc2c(CO)nc(NCc3cnn(Cc4ccc(C(F)(F)F)nc4)c3)nc2N1C [Compound 487, (7S)-4-(hydroxymethyl)-7,8-dimethyl-2-(((1-((6-(trifluoromethyl)pyridin-3-yl)methyl)-1H-pyrazol-4-yl)methyl)amino)-7,8-dihydropteridin-6(5H)-one] | 300 to 1000
Cc1nc(N[C@H]2C[C@H](Oc3ccc(OC(F)F)nc3)C2)nc2c1N(C)C(=O)[C@H](C)N2C [Compound 362, (7S)-2-((trans-3-((6-(difluoromethoxy)pyridin-3-yl)oxy)cyclobutyl)amino)-4,5,7,8-tetramethyl-7,8-dihydropteridin-6(5H)-one] | 300 to 1000
CN1C(=O)C2(CC2)N(C)c2nc(NCc3cnn(Cc4ccc(F)cc4)c3)ncc21 [Compound 227, 2′-(((1-(4-fluorobenzyl)-1H-pyrazol-4-yl)methyl)amino)-5′,8′-dimethyl-5′,8′-dihydro-6′H-spiro[cyclopropane-1,7′-pteridin]-6′-one] | 300 to 1000
Cc1nc(N[C@H]2CC[C@H](Oc3cc(F)c(F)c(F)c3)C2)nc2c1N(C)C(=O)[C@H](C)N2C [Compound 273, (S)-4,5,7,8-tetramethyl-2-(((1S,3S)-3-(3,4,5-trifluorophenoxy)cyclopentyl)amino)-7,8-dihydropteridin-6(5H)-one] | < 300
Cc1nc(N[C@H]2C[C@H](COc3cc(C(F)(F)F)ccn3)C2)nc2c1NC(=O)[C@H](C)N2C [Compound 369, (7S)-4,7,8-trimethyl-2-((trans-3-(((4-(trifluoromethyl)pyridin-2-yl)oxy)methyl)cyclobutyl)amino)-7,8-dihydropteridin-6(5H)-one] | ≥ 5000
Cc1nc(NCc2cnn(CC3CC(F)(F)C3)c2)nc2c1NC(=O)[C@H](C)N2C [Compound 61, (7S)-2-(((1-((3,3-difluorocyclobutyl)methyl)-1H-pyrazol-4-yl)methyl)amino)-4,7,8-trimethyl-7,8-dihydropteridin-6(5H)-one] | < 300
Cc1nc(Cn2cc(CNc3nc(C)c4c(n3)N(C)[C@@H](C)C(=O)N4)cn2)c(C)o1 [Compound 193, (7S)-2-(((1-((2,5-dimethyloxazol-4-yl)methyl)-1H-pyrazol-4-yl)methyl)amino)-4,7,8-trimethyl-7,8-dihydropteridin-6(5H)-one] | 300 to 1000
Cc1nc(N[C@H]2C[C@@H](NS(=O)(=O)c3cc(F)c(F)c(F)c3)C2)nc2c1NC(=O)[C@H](C)N2C [Compound 481, 3,4,5-trifluoro-N-(cis-3-(((S)-4,7,8-trimethyl-6-oxo-5,6,7,8-tetrahydropteridin-2-yl)amino)cyclobutyl)benzenesulfonamide] | 300 to 1000
Cc1nc(N[C@@H]2CC[C@H](N(C)c3ccc(C(F)(F)F)cc3)C2)nc2c1NC(=O)[C@H](C(C)C)N2C [Compound 505, (S)-7-isopropyl-4,8-dimethyl-2-(((1R,3S)-3-(methyl(4-(trifluoromethyl)phenyl)amino)cyclopentyl)amino)-7,8-dihydropteridin-6(5H)-one] | 1000 to 5000
CCN1C(=O)[C@H](C)N(CC)c2nc(NCc3cnn(Cc4cc(F)c(F)c(F)c4)c3)ncc21 [Compound 31, (7S)-5,8-diethyl-7-methyl-2-(((1-(3,4,5-trifluorobenzyl)-1H-pyrazol-4-yl)methyl)amino)-7,8-dihydropteridin-6(5H)-one] | < 300
Cc1cc(Cn2cc(CNc3nc(C)c4c(n3)N(C)[C@@H](C)C(=O)N4)cn2)ccn1 [Compound 178, (7S)-4,7,8-trimethyl-2-(((1-((2-methylpyridin-4-yl)methyl)-1H-pyrazol-4-yl)methyl)amino)-7,8-dihydropteridin-6(5H)-one] | 1000 to 5000
Cc1nc(NCc2cnn(Cc3ccc(C(F)(F)F)nc3)c2)nc2c1NC(=O)[C@H](COC(C)(C)C)N2C [Compound 590, (S)-7-(tert-butoxymethyl)-4,8-dimethyl-2-(((1-((6-(trifluoromethyl)pyridin-3-yl)methyl)-1H-pyrazol-4-yl)methyl)amino)-7,8-dihydropteridin-6(5H)-one] | 300 to 1000
Cc1nc(N[C@H]2CC[C@H](Oc3cc(F)c(F)c(F)c3)C2)nc2c1NC(=O)[C@H](C)N2C (mixture of isomers) [Compound 260, (7S)-4,7,8-trimethyl-2-((trans-3-(3,4,5-trifluorophenoxy)cyclopentyl)amino)-7,8-dihydropteridin-6(5H)-one] | 300 to 1000
Cc1nc(NCc2cnn(Cc3ccc(F)nc3)c2)nc2c1N(C)C(=O)[C@H](C)N2C [Compound 82, (7S)-2-(((1-((6-fluoropyridin-3-yl)methyl)-1H-pyrazol-4-yl)methyl)amino)-4,5,7,8-tetramethyl-7,8-dihydropteridin-6(5H)-one] | 300 to 1000
Cc1ccc(O[C@H]2C[C@H](Nc3nc(C)c4c(n3)N(C)[C@@H](C)C(=O)N4)C2)cc1 [Compound 339, (7S)-4,7,8-trimethyl-2-((trans-3-(p-tolyloxy)cyclobutyl)amino)-7,8-dihydropteridin-6(5H)-one] | 300 to 1000

Same assay, conditions: Homo sapiens, COLO 205, 5 h, R-isomer at C2 (corresponding to C2 S-isomer); Colo 205 TCF/LEF luciferase reporter, 5 h; read-out: TCF reporter Colo205 IC50

IC50 [nM] | SMILES
1000 to 5000 | Cc1nc(NCc2cnn(Cc3ccc(C(F)(F)F)nc3)c2)nc2c1NC(=O)[C@@H](CC(F)(F)F)N2C [Compound I-1645]
300 to 1000 | CC[C@@H]1C(=O)N(C)c2cnc(NCc3cnn(Cc4ccc(F)cc4)c3)nc2N1C(C)C [Compound I-1146]
< 300 | CCN1c2nc(NCc3cnn(Cc4ccc(F)cc4)c3)ncc2N(C)C(=O)[C@H]1C [Compound I-860]

Reference: US20230312587A1, “PTERIDINONE COMPOUNDS AND USES THEREOF” (Vertex Pharmaceutical Incorporated, priority 2018, published 2023)
